Results: patent US20260042731A1, “(2,4-DICHLOROPHENOXY)ACETIC ACID ANALOGS” (CORTEVA AGRISCIENCE LLC, priority 2022, published 2026)
“And” between values parts separate entries of the source, which are not always exact repeats. Equal values may be shown once. Read-outs that look alike come from different tables or passages of the source.

Key:
[1] = test system: Amaranthus rudis (AMATA), tall water hemp; test: Postemergence herbicide evaluation, growth of Amaranthus rudis (AMATA); assay type: in vivo; details: Amaranthus tuberculatus, post-emergence, percent reduction in plant size vs untreated control, read-out: Ave. AMATA; for pest or weed control at 280 g/ha: 280 g ae/ha; for pest or weed control at 560 g/ha: 560 g ae/ha
[2] = test system: Ambrosia artemisiifolia (AMBEL), common ragweed; test: Postemergence herbicide evaluation, growth of Ambrosia artemisiifolia (AMBEL); assay type: in vivo; details: Ambrosia artemisiifolia, post-emergence, percent reduction in plant size vs untreated control, read-out: AVE. AMBEL; for pest or weed control at 280 g/ha: 280 g ae/ha; for pest or weed control at 560 g/ha: 560 g ae/ha
[3] = test system: Abutilon theophrasti (ABUTH), velvetleaf; test: Postemergence herbicide evaluation, growth of Abutilon theophrasti (ABUTH); assay type: in vivo; details: Abutilon theophrasti, post-emergence, percent reduction in plant size vs untreated control, read-out: AVE. ABUTH; for pest or weed control at 280 g/ha: 280 g ae/ha; for pest or weed control at 560 g/ha: 560 g ae/ha
[4] = test system: Chenopodium album (CHEAL), common lambsquarters; test: Postemergence herbicide evaluation, growth of Chenopodium album (CHEAL); assay type: in vivo; details: Chenopodium album, post-emergence, percent reduction in plant size vs untreated control, read-out: Ave. CHEAL; for pest or weed control at 280 g/ha: 280 g ae/ha; for pest or weed control at 560 g/ha: 560 g ae/ha
[5] = test system: glyphosate resistant Conyza canadensis (L.) (ERICA), horseweed; test: Postemergence herbicide evaluation, growth of Conyza canadensis (ERICA); assay type: in vivo; details: Erigeron canadensis, post-emergence, percent reduction in plant size vs untreated control, read-out: Ave. ERICA; for pest or weed control at 280 g/ha: 280 g ae/ha; for pest or weed control at 560 g/ha: 560 g ae/ha
[6] = Volatility of compounds measured by thermogravimetric analysis (TGA); assay type: physicochemical
[7] = test system: weeds ABUTH, AMATA, AMBEL, CHEAL, ERICA; test: Postemergence herbicide evaluation, overall average % weed control across ABUTH, AMATA, AMBEL, CHEAL and ERICA; assay type: in vivo; details: post-emergence, average over five weeds, read-out: Overall Ave % Weed Control; for pest or weed control at 280 g/ha: 280 g ae/ha; for pest or weed control at 560 g/ha: 560 g ae/ha
[8] = value marked *: decomposition of the material was observed

| Structure (SMILES) | pest or weed control at 280 g/ha ([1]; 168 h, 7 DAA) [%] | pest or weed control at 560 g/ha ([1]; 168 h, 7 DAA) [%] | pest or weed control at 280 g/ha ([1]; 336 h, 14 DAA) [%] | pest or weed control at 560 g/ha ([1]; 336 h, 14 DAA) [%] | pest or weed control at 280 g/ha ([1]; 504 h, 21 DAA) [%] | pest or weed control at 560 g/ha ([1]; 504 h, 21 DAA) [%] | pest or weed control at 280 g/ha ([2]; 168 h, 7 DAA) [%] | pest or weed control at 560 g/ha ([2]; 168 h, 7 DAA) [%] | pest or weed control at 280 g/ha ([2]; 336 h, 14 DAA) [%] | pest or weed control at 560 g/ha ([2]; 336 h, 14 DAA) [%] | pest or weed control at 280 g/ha ([2]; 504 h, 21 DAA) [%] | pest or weed control at 560 g/ha ([2]; 504 h, 21 DAA) [%] | pest or weed control at 280 g/ha ([3]; 168 h, 7 DAA) [%] | pest or weed control at 560 g/ha ([3]; 168 h, 7 DAA) [%] | pest or weed control at 280 g/ha ([3]; 336 h, 14 DAA) [%] | pest or weed control at 560 g/ha ([3]; 336 h, 14 DAA) [%] | pest or weed control at 280 g/ha ([3]; 504 h, 21 DAA) [%] | pest or weed control at 560 g/ha ([3]; 504 h, 21 DAA) [%] | pest or weed control at 280 g/ha ([4]; 168 h, 7 DAA) [%] | pest or weed control at 560 g/ha ([4]; 168 h, 7 DAA) [%] | also measured |
| --- | --- | --- | --- | --- | --- | --- | --- | --- | --- | --- | --- | --- | --- | --- | --- | --- | --- | --- | --- | --- | --- |
| O=C(COc1ccc(Cl)cc1Cl)ONC(=O)C1CCCC1 [Compound A20] | 91.5 | 92.5 | 90 | 90 | 100 | 82.5 | 72.5 | 85 | 100 | 85 | 100 | 100 | 60 | 87.5 | 79 | 100 | 92.5 | 100 | 77.5 | 77.5 | pest or weed control at 280 g/ha ([4]; 336 h, 14 DAA): 98%; pest or weed control at 560 g/ha ([4]; 336 h, 14 DAA): 92.5%; pest or weed control at 280 g/ha ([4]; 504 h, 21 DAA): 95%; pest or weed control at 560 g/ha ([4]; 504 h, 21 DAA): 96%; pest or weed control at 280 g/ha ([5]; 168 h, 7 DAA): 75%; pest or weed control at 560 g/ha ([5]; 168 h, 7 DAA): 80%; pest or weed control at 280 g/ha ([5]; 336 h, 14 DAA): 98.5%; pest or weed control at 560 g/ha ([5]; 336 h, 14 DAA): 94.5%; pest or weed control at 280 g/ha ([5]; 504 h, 21 DAA): 100%; pest or weed control at 560 g/ha ([5]; 504 h, 21 DAA): 100%; TGA Data (rate of weight loss, volatility) [6]: 1.83 µg/min; TGA Data (rate of weight loss, volatility) [6, 8]: 2.946* μg/min and 1.83* μg/min; pest or weed control at 280 g/ha ([7]; 168 h, 7 DAA): 75.3%; pest or weed control at 560 g/ha ([7]; 168 h, 7 DAA): 84.5%; pest or weed control at 280 g/ha ([7]; 336 h, 14 DAA): 93.1%; pest or weed control at 560 g/ha ([7]; 336 h, 14 DAA): 92.4%; pest or weed control at 280 g/ha ([7]; 504 h, 21 DAA): 97.5%; pest or weed control at 560 g/ha ([7]; 504 h, 21 DAA): 95.7% |
| CCN(CC)OC(=O)COc1ccc(Cl)cc1Cl [Compound A21] | 80 | 85 | 90 | 87.5 | 80 | 100 | 70 | 70 | 80 | 98 | 100 | 100 | 60 | 87.5 | 67.5 | 94.5 | 90 | 99.5 | 77.5 | 82.5 | pest or weed control at 280 g/ha ([4]; 336 h, 14 DAA): 92.5%; pest or weed control at 560 g/ha ([4]; 336 h, 14 DAA): 96.5%; pest or weed control at 280 g/ha ([4]; 504 h, 21 DAA): 97.5%; pest or weed control at 560 g/ha ([4]; 504 h, 21 DAA): 99%; pest or weed control at 280 g/ha ([5]; 168 h, 7 DAA): 85%; pest or weed control at 560 g/ha ([5]; 168 h, 7 DAA): 82.5%; pest or weed control at 280 g/ha ([5]; 336 h, 14 DAA): 92%; pest or weed control at 560 g/ha ([5]; 336 h, 14 DAA): 94%; pest or weed control at 280 g/ha ([5]; 504 h, 21 DAA): 97.5%; pest or weed control at 560 g/ha ([5]; 504 h, 21 DAA): 100%; TGA Data (rate of weight loss, volatility) [6, 8]: 1.352* μg/min; pest or weed control at 280 g/ha ([7]; 168 h, 7 DAA): 74.5%; pest or weed control at 560 g/ha ([7]; 168 h, 7 DAA): 81.5%; pest or weed control at 280 g/ha ([7]; 336 h, 14 DAA): 84.4%; pest or weed control at 560 g/ha ([7]; 336 h, 14 DAA): 94.1%; pest or weed control at 280 g/ha ([7]; 504 h, 21 DAA): 93%; pest or weed control at 560 g/ha ([7]; 504 h, 21 DAA): 99.7% |
| C/C(=N\OC(=O)COc1ccc(Cl)cc1Cl)C(=O)c1ccccc1 [Compound A22] | 70 | 87.5 | 87.5 | 92.5 | 65 | 87.5 | 77.5 | 82.5 | 67.5 | 92.5 | 100 | 100 | 62.5 | 70 | 82.5 | 98.5 | 97 | 99.5 | 75 | 80 | pest or weed control at 280 g/ha ([4]; 336 h, 14 DAA): 97.5%; pest or weed control at 560 g/ha ([4]; 336 h, 14 DAA): 99%; pest or weed control at 280 g/ha ([4]; 504 h, 21 DAA): 87.5%; pest or weed control at 560 g/ha ([4]; 504 h, 21 DAA): 97.5%; pest or weed control at 280 g/ha ([5]; 168 h, 7 DAA): 87.5%; pest or weed control at 560 g/ha ([5]; 168 h, 7 DAA): 77.5%; pest or weed control at 280 g/ha ([5]; 336 h, 14 DAA): 100%; pest or weed control at 560 g/ha ([5]; 336 h, 14 DAA): 100%; pest or weed control at 280 g/ha ([5]; 504 h, 21 DAA): 99%; pest or weed control at 560 g/ha ([5]; 504 h, 21 DAA): 99.5%; TGA Data (rate of weight loss, volatility) [6]: 0.42 µg/min; pest or weed control at 280 g/ha ([7]; 168 h, 7 DAA): 74.5%; pest or weed control at 560 g/ha ([7]; 168 h, 7 DAA): 79.5%; pest or weed control at 280 g/ha ([7]; 336 h, 14 DAA): 87%; pest or weed control at 560 g/ha ([7]; 336 h, 14 DAA): 96.5%; pest or weed control at 280 g/ha ([7]; 504 h, 21 DAA): 89.7%; pest or weed control at 560 g/ha ([7]; 504 h, 21 DAA): 96.8% |
| O=C(COc1cc(Cl)cc(Cl)c1)OCCCOC(=O)COc1ccc(Cl)cc1Cl [Compound B7] | 57.5 | 67.5 | 85 | 85 | 70 | 52.5 | 62.5 | 72.5 | 57.5 | 67.5 | 77.5 | 100 | 20 | 37.5 | 17.5 | 30 | 15 | 42.5 | 82.5 | 77.5 | pest or weed control at 280 g/ha ([4]; 336 h, 14 DAA): 96.5%; pest or weed control at 560 g/ha ([4]; 336 h, 14 DAA): 96.5%; pest or weed control at 280 g/ha ([4]; 504 h, 21 DAA): 90%; pest or weed control at 560 g/ha ([4]; 504 h, 21 DAA): 87.5%; pest or weed control at 280 g/ha ([5]; 168 h, 7 DAA): 82.5%; pest or weed control at 560 g/ha ([5]; 168 h, 7 DAA): 85%; pest or weed control at 280 g/ha ([5]; 336 h, 14 DAA): 70%; pest or weed control at 560 g/ha ([5]; 336 h, 14 DAA): 91.5%; pest or weed control at 280 g/ha ([5]; 504 h, 21 DAA): 99%; pest or weed control at 560 g/ha ([5]; 504 h, 21 DAA): 98.5%; TGA Data (rate of weight loss, volatility) [6]: 0.03572 µg/min; pest or weed control at 280 g/ha ([7]; 168 h, 7 DAA): 61%; pest or weed control at 560 g/ha ([7]; 168 h, 7 DAA): 68%; pest or weed control at 280 g/ha ([7]; 336 h, 14 DAA): 65.3%; pest or weed control at 560 g/ha ([7]; 336 h, 14 DAA): 74.1%; pest or weed control at 280 g/ha ([7]; 504 h, 21 DAA): 70.3%; pest or weed control at 560 g/ha ([7]; 504 h, 21 DAA): 76.2% |
